Measurements taken from patent publication US12721815B2, “Freeze-dried exosome composition and uses thereof” (AVECIN-Biopharma Oy, priority 2022, dated 2026).

Assays:
[1] = Freeze-drying apple exosomes using trehalose, LMW HA and their combination (TEM, NTA); format: physicochemical; conditions: rehydrated after freeze-drying, FIG. 5
Description: For TEM imaging, exosomes are fixed with 4.0% paraformaldehyde (PFA) in sodiumphosphate buffer and stained with 2% neutral uranyl acetate with embedding in uranyl acetate and methylcellulose mixture. Exosomes are viewed with transmission EM using Jeol JEM-1400 (Jeol Ltd., Tokyo, Japan) operating at 80 kV. Images are taken with Gatan Orius SC 1000B CCD-camera (Gatan Inc., USA) with 4008×2672 px image size and no binning.
Particle number and size distribution of the exosome is measured by NTA instrument LM14C (NanoSight LTD., London, UK) equipped with blue (404 nm, 70 mW) laser and sCMOS camera. Data are analysed with Nanosight software v3.0, using threshold 5 and gain 10.
To test the preservation of exosome functionality and integrity during the lyophilization process, two cryoprotectants (trehalose and LMW HA) in four different cryoprotectant combinations were used, namely: 50 mM trehalose, 100 mM trehalose, 5% LMW HA, and 50 mM trehalose +2.5% LMW HA. Lyophilization solutions were prepared using PBS. The overall osmolality of the lyophilization solutions was maintained at 290 mOsm/kg. For the freeze-drying experiments, isolated exosomes (10^10-10^11 particle/ml) were suspended in cryoprotectant solution. 5 ml of each sample was prepared. Each solution was divided into 3 polypropylene microcentrifuge tubes, each tube containing 1.2 ml of lyophilization solution supplied with exosomes. […]

[2] = Lyophilization of exosomes with different cryoprotectants of Table 1 (BCA kit, TEM, NTA); format: physicochemical; conditions: FIG. 4
Description: The protein concentration of isolated exosomes is measured by BCA protein assay kit. Isolated exosomes were characterized by fluorescent staining, Transmission electron microscopy (TEM), and Nanoparticle Tracking Analysis (NTA).
Different cryoprotectant components namely trehalose, mannitol, sorbitol, sucrose, glucose and HA (both low Mw (LW) and high Mw (HMW)), either alone or in combination with HA or glycine (see Table 1) were tested for exosome viability outcome after lyophilization. PBS (290 mOsm/kg) was used as the solvent. The LMW HA used for the examples described herein is LMW HA having a Mw lower than 10 kDa. Isolated exosomes (1 mg/ml) were dissolved in PBS solution and then mixed with cryoprotectant solution in the ratio of 1 part exosomes to 1, 3, 5, or 10 parts of cryoprotectant.
Cryoprotectant solutions were prepared using phosphate-buffered saline (PBS) while the overall osmolality of the lyophilization solutions was maintained at 290 mOsm/kg. Isolated exosomes (10^10-10^11 particle/ml) were suspended in cryoprotectant solution ranging from 1 part of exosome suspension with 3 parts of cryoprotectant solution, to, 3 parts of exosome suspension with 1 part of cryoprotectant solution. Exosomes were lyophilized and then morphology of retrieved exosomes was visualized by TEM while size and concentration were measured by NTA (see FIG. 4). […]

human dermal fibroblasts [3] = test: Wound scratch assay (relative wound density); format: cell-based; conditions: FIG. 6(a)
Description: Human dermal fibroblasts are seeded in 96 well plates at 2.4×10^4 cells/well. A cell-free area is then created in a confluent monolayer by physical exclusion through mechanical damage using a […] pipette tip. The culture medium is replaced immediately with a fresh 0.5% EV-free serum-supplemented culture medium containing 100 μg/ml of each exosome preparation tested. Three positions per scratch are imaged for 48 hours. Relative wound density is analysed by measuring the wound area over the healing time. All scratch assays are performed in triplicate.

human dermal fibroblasts [4] = test: MTT assay (fibroblast proliferation); format: cell-based; conditions: FIG. 6(b)
Description: The effect of the exosomes on the proliferation of human dermal fibroblasts was measured by a 3-[4.5-Dimethylthiazol-2-yl]-2.5-diphenyltetrazolium bromide ([…]; Life technologies) assay. Briefly, human dermal fibroblast cells are seeded in 96-well plates at an initial density of 5×10^3 cells/well for 24 h and then are treated with 100 μg/mL of exosomes for 48 hours. Cells are incubated with 0.5 mg/mL of MTT for 3-5 h and then 100 μl DMSO is added to each well and the optical density is measured at 540 nm.

human dermal fibroblasts [5] = test: Collagen production, human collagen type I ELISA kit; format: cell-based; conditions: incubated 48 h, FIG. 6(c)
Description: Also, collagen production was measured using a human collagen type I ELIZA kit. Human dermal fibroblasts were incubated with the exosome samples for 48 h. 100 μl of cell culture media was collected from each sample and incubated with 100 μl of biotinylated detection antibody for 1 h at 37° C. Samples were then washed and incubated with 100 μl of horseradish peroxidase (HRP) conjugate working solution. Stop solution was added and optical density was measured at 450 nm with a Plate Reader.

Row | Compound | aggregation, size and concentration of lyophilized apple exosomes (result in words) [1] | exosome concentration, morphology, aggregation after lyophilization (result in words) [2] | relative wound density, lyophilised versus non-lyophilised exosomes (result in words) (human dermal fibroblasts [3]) | fibroblast proliferation, lyophilised versus non-lyophilised exosomes (result in words) (human dermal fibroblasts [4]) | collagen production by fibroblasts (result in words) (human dermal fibroblasts [5])
1 | OC[C@H]1O[C@H](O[C@H]2O[C@H](CO)[C@@H](O)[C@H](O)[C@H]2O)[C@H](O)[C@@H](O)[C@@H]1O [trehalose, Trehalose] | no exosome aggregation | best results as a single component cryoprotectant | – | – | –
2 | Hyaluronic acid (LMW) [hyaluronic acid at low-molecular-weight] | – | – | positive role | positive role | positive role
